In US11957699B2, “Composition comprising punicalagin for inhibiting PAR2 activity” (INDUSTRY-ACADEMIC COOPERATION FOUNDATION, YONSEI UNIVERSITY, priority 2018, dated 2024):

How the values were obtained:
[1] = tested on: SD rats with acute pancreatitis induced by caerulein; test: Acute pancreatitis induced by caerulein in rats; assay type: in vivo; conditions: 10 mg/kg, 30 minutes before 40 μg/kg caerulein, pancreas extracted after 2 hours
Experimental: In 6-week-old SD rats, it was confirmed whether punicalagin has an effect of alleviating symptoms of acute pancreatitis induced by caerulein.
Specifically, […], and after 30 minutes, 40 μg/kg of caerulein, which is an acute pancreatitis-inducing substance, was intraperitoneally injected, and then, after 2 hours, the pancreas of the experimental animals was extracted and analyzed.
First, the weight of the extracted pancreas was measured to determine whether punicalagin inhibits edema, which is a symptom of acute pancreatitis. As a result, it was confirmed that when 10 mg/kg punicalagin was administered to […], in which acute pancreatitis was induced by caerulein, the edema of the pancreas was inhibited by 95% or more (panel A of FIG. 8).
Next, as a result of observing the nucleus and cytoplasm of the extracted pancreatic tissue with a microscope through H&E staining in order to confirm the damage to pancreatic cells by caerulein, it was confirmed that in the rats administered with caerulein, the distance between pancreatic cells was increased and the cells were damaged due to symptoms of acute pancreatitis.

[2] = tested on: C57BL6N mice with pruritus induced by PAR2-AP; test: Pruritus induced by PAR2-AP in mice (number of scratches); assay type: in vivo
Experimental: In seven-week-old C57BL6N mice, it was confirmed whether punicalagin (PG) has an effect of alleviating pruritus symptoms induced by PAR2 receptor activation by PAR2-AP (activating peptide). In addition, the effects of punicalin (PNC) and ellagic acid (EA), which are metabolites of punicalagin and contained in pomegranate peel in a large amount, were also confirmed.
Specifically, each of 0, 1, 3, and 10 mg/kg punicalagin (n=4) was dissolved in physiological saline and intraperitoneally injected, and after 30 minutes, 100 μg of PAR2-AP was intradermally injected to induce pruritus. As control groups, a group which was intraperitoneally injected with physiological saline only (n=4) and a group which was intraperitoneally injected with 10 mg/kg punicalagin (n=4) were established, and the number of scratches was measured for 40 minutes.

PAR2 [3] = molecular target: T1, PAR2 (Homo sapiens, UniProt P55085); test: Increase of intracellular calcium ions by PAR2-AP in HT-29 cells (Fluo4-NW); assay type: cell-based; set-up: endogenous in cells; host or cells: HT-29 colon cancer cells
T1 sequence (P55085 26-397): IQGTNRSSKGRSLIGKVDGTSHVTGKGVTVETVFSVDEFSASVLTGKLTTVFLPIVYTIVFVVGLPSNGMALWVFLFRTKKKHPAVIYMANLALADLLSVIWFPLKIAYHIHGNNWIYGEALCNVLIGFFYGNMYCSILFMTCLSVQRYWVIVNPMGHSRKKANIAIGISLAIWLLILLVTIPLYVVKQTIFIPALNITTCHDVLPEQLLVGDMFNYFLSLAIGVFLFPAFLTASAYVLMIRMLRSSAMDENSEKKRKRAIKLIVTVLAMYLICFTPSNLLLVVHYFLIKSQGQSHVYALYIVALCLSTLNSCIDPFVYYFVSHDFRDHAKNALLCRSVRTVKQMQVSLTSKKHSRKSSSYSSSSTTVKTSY
Experimental: After colon cancer cells (HT-29) were cultured for 48 hours in a 96-well micro plate with the RPMI1640 culture medium, the culture medium was removed, and then, 100 μL of the Flou4-NW dye mixture was added. While blocking the light, it was stabilized for 1 hour such that a calcium ion dye (Ca^2+ dye) was loaded into the cells. Next, after treating punicalin (0, 3, 10, and 30 μM), punicalagin (0, 0.3, 1, 2, 3, and 10 μM), or ellagic acid (0, 30, and 100 μM) for 10 minutes by concentration, each well was treated with 30 μM PAR2-AP (PAR2-activating peptide, SLIGRL-NH2) to measure the concentration change in intracellular calcium ions.

PAR2 [4] = molecular target: T1, PAR2; test: Intracellular calcium increase by trypsin (PAR2 receptor activation) in HaCaT keratinocytes; assay type: cell-based; set-up: endogenous in cells; host or cells: HaCaT keratinocytes; conditions: HaCaT, 0.1 μM trypsin, 10 minutes pretreatment
Experimental: After keratinocytes (HaCaT) were cultured for 48 hours in a 96-well micro plate with the DMEM culture medium, the culture medium was removed, and then, 100 μL of the Flou4-NW dye mixture was added. While blocking the light, it was stabilized for 1 hour such that a calcium ion dye (Ca^2+ dye) was loaded into the cells. 100 μM punicalagin was treated, and the concentration change of intracellular calcium ions was measured for 5 minutes (panel A of FIG. 17). Next, punicalin (0, 1, 3, 10, 20, 30, 100, and 300 μM) by concentration (panel B of FIG. 17) or punicalagin (0, 1, 3, 5, 10, 20, 30, and 100 μM) by concentration (panel C of FIG. 17) was treated for 10 minutes, and then, each well was treated with 0.1 μM trypsin to measure the concentration change of intracellular calcium ions according to PAR2 receptor activation.

SMILES: O=c1oc2c(O)c(O)cc3c(=O)oc4c(O)c(O)cc1c4c23 [ellagic acid, reference compound]
- inhibition of edema of the pancreas (pancreas weight) [1]: not significantly inhibited
- numbers of scratches ([2]; 3 mg/kg ellagic acid group (n=3)): not significantly reduced
- inhibition of the PAR2 receptor (PAR2 [3]; HT-29 cells, PAR2-AP, high concentration (100 μM)): did not inhibit

SMILES: O=C1OC[C@H]2OC(O)[C@H](O)[C@@H](O)[C@@H]2OC(=O)c2cc(O)c(O)c(O)c2-c2c(O)c(O)c3oc(=O)c4c(c(O)c(O)c5oc(=O)c2c3c54)-c2c1cc(O)c(O)c2O (mixture of isomers) [punicalin, reference compound]
- number of scratches for 40 minutes ([2]; 10 mg/kg, PAR2-AP group about 240): about 197 times
- inhibition of PAR2 receptor activity by trypsin (PAR2 [4]): inhibited PAR2 receptor activity by trypsin in a concentration-dependent manner
- inhibitory effect on the PAR2 receptor (PAR2 [3]; found by compound library search and molecular physiological experiments): relatively weak inhibitory effect
